According to patent US9802941B2, “Compounds and methods for inhibiting histone demethylases” (Gilead Sciences, Inc., priority 2014, dated 2017):
Where two headings read alike, the source gives them in different places.

What was measured:
Type in all cases: biochemical
[1] = molecular target: T1, KDM4C (JMJD2C) (Homo sapiens, UniProt Q9H3R0); assay: Histone lysine demethylase AlphaLISA assay, KDM4C
T1 construct: KDM4C; BRIC, Denmark; 1-349; E. coli; host or cells: E. coli
T1 sequence (Q9H3R0 1-349): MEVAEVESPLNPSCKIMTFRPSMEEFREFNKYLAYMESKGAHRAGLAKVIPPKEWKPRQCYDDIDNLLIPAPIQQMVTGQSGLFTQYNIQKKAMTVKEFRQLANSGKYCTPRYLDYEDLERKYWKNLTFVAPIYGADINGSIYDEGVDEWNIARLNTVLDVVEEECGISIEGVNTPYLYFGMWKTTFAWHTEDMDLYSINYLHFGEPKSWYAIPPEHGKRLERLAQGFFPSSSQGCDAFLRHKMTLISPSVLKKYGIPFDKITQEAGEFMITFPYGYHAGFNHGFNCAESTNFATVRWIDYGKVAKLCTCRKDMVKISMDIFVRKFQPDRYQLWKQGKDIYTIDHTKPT
Experimental: (§1) The compounds of the application, or a pharmaceutically acceptable salt, or solvate, or prodrug thereof, are tested in an in vitro AlphaLISA assay. Enzymes are dissolved in enzyme buffer and incubated before they are added to DMSO solutions of compounds of the application, or a pharmaceutically acceptable salt, or solvate, or prodrug thereof, in enzyme buffer. The reaction mixture is then incubated for an additional period of time before substrate solution is added and then the resulting mixture again incubated. Acceptor beads and suspended Epigenetic Buffer from stock are added and the suspension is again incubated before a suspension of streptavidin donor beads in Epigenetic Buffer is added. After an additional period of incubation, the plates are read.
(§2) The ability of compounds of the application to inhibit the histone lysine demethylase activity in vitro of different enzymes was determined.
(§3) The reaction mixture was incubated for another 10 minutes before 5 μL of substrate solution was added and the resulting mixture was then incubated at room temperature. […] After incubation at room temperature in the dark, the plates were read.
(§4) Enzyme Buffer: 50 mM Hepes (pH 7.4-8.0), 0.003-0.01% Tween-20, 0.1% BSA; 5 μM (NH4)2Fe(SO4)2.

[2] = molecular target: T2, KDM2B (FBXL10) (Homo sapiens, UniProt Q8NHM5); assay: Histone lysine demethylase AlphaLISA assay, KDM2B
T2 construct: KDM2B; BPS,; 1-650; Bac; purchased BPS Bioscience, US; host or cells: baculovirus system
T2 sequence (Q8NHM5 1-650): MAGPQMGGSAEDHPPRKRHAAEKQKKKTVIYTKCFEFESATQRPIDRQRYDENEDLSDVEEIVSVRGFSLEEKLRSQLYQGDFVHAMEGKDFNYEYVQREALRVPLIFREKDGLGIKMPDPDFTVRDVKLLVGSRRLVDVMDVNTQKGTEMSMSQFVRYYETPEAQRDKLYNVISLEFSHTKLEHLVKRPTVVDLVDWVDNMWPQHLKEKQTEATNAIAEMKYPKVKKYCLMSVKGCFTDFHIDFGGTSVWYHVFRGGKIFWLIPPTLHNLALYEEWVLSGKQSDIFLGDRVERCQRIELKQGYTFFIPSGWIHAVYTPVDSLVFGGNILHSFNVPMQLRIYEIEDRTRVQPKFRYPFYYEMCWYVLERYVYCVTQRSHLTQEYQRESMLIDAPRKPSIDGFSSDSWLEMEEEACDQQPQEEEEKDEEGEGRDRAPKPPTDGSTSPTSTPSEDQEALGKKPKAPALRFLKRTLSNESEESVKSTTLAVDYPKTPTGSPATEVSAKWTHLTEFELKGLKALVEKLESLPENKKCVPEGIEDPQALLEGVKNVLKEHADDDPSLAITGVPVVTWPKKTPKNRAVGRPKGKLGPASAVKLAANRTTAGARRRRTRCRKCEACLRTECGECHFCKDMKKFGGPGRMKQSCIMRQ
Experimental: as §1, §2, §3, §4

[3] = molecular target: T3, PHF8 (KDM7) (Homo sapiens, UniProt Q9UPP1); assay: Histone lysine demethylase AlphaLISA assay, PHF8
T3 construct: KDM7 (PHF8); BRIC; 1-1322; Bac
Experimental: as §1, §2, §3, §4

[4] = molecular target: T4, KDM5B (PLU-1) (Homo sapiens, UniProt Q9UGL1); assay: Histone lysine demethylase AlphaLISA assay, KDM5B
T4 construct: BRIC; 1-809; E. coli; host or cells: E. coli
T4 sequence (Q9UGL1 1-809): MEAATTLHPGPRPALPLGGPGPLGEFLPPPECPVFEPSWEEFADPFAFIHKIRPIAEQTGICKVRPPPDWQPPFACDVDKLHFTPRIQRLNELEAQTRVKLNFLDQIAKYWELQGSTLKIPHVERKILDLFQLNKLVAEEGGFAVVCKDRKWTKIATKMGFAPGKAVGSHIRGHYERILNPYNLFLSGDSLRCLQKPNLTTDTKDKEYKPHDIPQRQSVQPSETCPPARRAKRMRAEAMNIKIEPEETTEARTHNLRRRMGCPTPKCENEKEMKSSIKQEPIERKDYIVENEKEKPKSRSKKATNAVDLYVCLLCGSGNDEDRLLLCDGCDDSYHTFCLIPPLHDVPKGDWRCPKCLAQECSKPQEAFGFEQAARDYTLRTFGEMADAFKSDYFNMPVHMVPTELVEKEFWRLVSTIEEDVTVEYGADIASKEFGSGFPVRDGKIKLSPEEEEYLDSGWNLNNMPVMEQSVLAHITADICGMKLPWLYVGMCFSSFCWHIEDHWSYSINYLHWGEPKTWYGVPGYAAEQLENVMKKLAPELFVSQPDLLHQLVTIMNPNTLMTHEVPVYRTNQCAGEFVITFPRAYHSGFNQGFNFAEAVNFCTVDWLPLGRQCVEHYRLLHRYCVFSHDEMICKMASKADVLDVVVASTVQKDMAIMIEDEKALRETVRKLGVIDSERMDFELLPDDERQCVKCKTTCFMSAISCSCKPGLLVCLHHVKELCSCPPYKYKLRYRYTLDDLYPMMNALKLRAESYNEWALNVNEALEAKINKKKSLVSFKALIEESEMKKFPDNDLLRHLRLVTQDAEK
Experimental: as §1, §2, §3, §4

[5] = AlphaLISA assay, read-out: HDME Inhibition KDM4C (IC50)
[6] = AlphaLISA, in vitro, read-out: HDME Inhibition KDM4C
[7] = AlphaLISA, in vitro, read-out: HDME Inhibition KDM2B
[8] = AlphaLISA, in vitro, read-out: HDME Inhibition PHF8
[9] = AlphaLISA assay, read-out: HDME Inhibition KDM5B (IC50)
[10] = AlphaLISA, in vitro, read-out: HDME Inhibition KDM5B
[11] = AlphaLISA assay, read-out: HDME Inhibition KDM2B (IC50)
[12] = AlphaLISA assay, read-out: HDME Inhibition PHF8 (IC50)

T3 sequence (Q9UPP1 37-440 limits assumed): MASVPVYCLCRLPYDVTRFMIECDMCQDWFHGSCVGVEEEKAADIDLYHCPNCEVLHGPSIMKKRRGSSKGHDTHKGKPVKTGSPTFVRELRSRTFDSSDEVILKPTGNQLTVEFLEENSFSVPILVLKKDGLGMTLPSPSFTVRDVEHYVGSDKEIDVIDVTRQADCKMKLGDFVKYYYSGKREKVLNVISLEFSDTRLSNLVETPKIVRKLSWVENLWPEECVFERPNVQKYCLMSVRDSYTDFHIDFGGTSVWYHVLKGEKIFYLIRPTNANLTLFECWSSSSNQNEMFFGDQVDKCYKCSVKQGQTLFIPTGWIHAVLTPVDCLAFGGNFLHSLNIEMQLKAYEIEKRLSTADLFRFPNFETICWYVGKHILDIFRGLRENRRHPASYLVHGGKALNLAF

IC50 [1, 5] [µM] | IC50 [1, 6] [µM] | IC50 [2, 7] [µM] | IC50 [3, 8] [µM] | IC50 [4, 9] [µM] | IC50 [4, 10] [µM] | IC50 [4] [µM] | IC50 [2, 11] [µM] | IC50 [3, 12] [µM] | Compound
> 10 | > 10 | 2.27 | 2.28 | > 10 | > 10 | – | – | – | Cc1cc(C(=O)O)cc(CNCc2nnc(CCN(C)C)n2Cc2ccc(F)cc2)n1 [Compound 46, 2-{[({5-[2-(dimethylamino)ethyl]-4-[(4-fluorophenyl)methyl]-4H-1,2,4-triazol-3-yl}methyl)amino]methyl}-6-methylpyridine-4-carboxylic acid]
> 10 | > 10 | 1.26 | 0.391 | – | – | 4.08 | – | – | Cc1cc(C(=O)O)cc(CNCc2nccn2Cc2cccc(C#N)c2)n1 [Compound 47, 2-{[({1-[(3-cyanophenyl)methyl]-1H-imidazol-2-yl}methyl)amino]methyl}-6-methylpyridine-4-carboxylic acid]
> 10 | > 10 | 0.027 | 0.662 | > 10 | > 10 | – | – | – | CCc1nnc(CNCc2cc(C(=O)O)cc(CO)n2)n1CCCc1ccccc1 [Compound 69, 2-[({[5-ethyl-4-(3-phenylpropyl)-4H-1,2,4-triazol-3-yl]methyl}amino)methyl]-6-(hydroxymethyl)pyridine-4-carboxylic acid]
– | 7.37 | 0.244 | 0.307 | – | – | 0.231 | – | – | O=C(O)c1cc(CO)nc(CNCc2nncn2Cc2ccc(F)cc2)c1 [Compound 62, 2-{[({4-[(4-fluorophenyl)methyl]-4H-1,2,4-triazol-3-yl}methyl)amino]methyl}-6-(hydroxymethyl)pyridine-4-carboxylic acid]
> 10 | > 10 | > 10 | > 10 | > 10 | > 10 | – | > 10 | > 10 | COc1ccc(O)c(CCNCc2cc(C(=O)O)cc(CO)n2)n1 [Compound 109, 2-({[2-(3-hydroxy-6-methoxypyridin-2-yl)ethyl]amino}methyl)-6-(hydroxymethyl)pyridine-4-carboxylic acid]
> 10 | > 10 | > 10 | > 10 | > 10 | > 10 | – | > 10 | > 10 | CCc1nnc(CNCc2cc(C(=O)O)cc(C)n2)n1Cc1cccc(C(C)O)c1 (stereo not shown) [Compound 86, 2-({[(5-ethyl-4-{[3-(1-hydroxyethyl)phenyl]methyl}-4H-1,2,4-triazol-3-yl)methyl]amino}methyl)-6-methylpyridine-4-carboxylic acid]
> 10 | > 10 | 0.823 | 5.1 | – | – | 1.07 | – | – | O=Cc1cn(Cc2ccc(F)cc2)c(CNCc2cc(C(=O)O)cc(CO)n2)n1 [Compound 111, 2-{[({1-[(4-fluorophenyl)methyl]-4-formyl-1H-imidazol-2-yl}methyl)amino]methyl}-6-(hydroxymethyl)pyridine-4-carboxylic acid]
> 10 | > 10 | 1.53 | 4.95 | – | – | 0.755 | – | – | Cc1nc(CNCc2cc(C(=O)O)cc(CO)n2)n(Cc2ccc(F)cc2)c1C [Compound 83, 2-{[({1-[(4-fluorophenyl)methyl]-4,5-dimethyl-1H-imidazol-2-yl}methyl)amino]methyl}-6-(hydroxymethyl)pyridine-4-carboxylic acid]
> 10 | > 10 | 0.461 | 1.86 | > 10 | > 10 | – | – | – | Cc1cc(C(=O)O)cc(CNCc2nnc(C(C)O)n2Cc2ccc(F)cc2)n1 (stereo not shown) [Compound 85, 2-{[({4-[(4-fluorophenyl)methyl]-5-(1-hydroxyethyl)-4H-1,2,4-triazol-3-yl}methyl)amino]methyl}-6-methylpyridine-4-carboxylic acid]
> 10 | > 10 | 0.715 | 0.791 | > 10 | > 10 | – | – | – | Cc1cc(C(=O)O)cc(CNCc2nncn2C/C=C/c2ccccc2)n1 [Compound 67, 2-methyl-6-{[({4-[(2E)-3-phenylprop-2-en-1-yl]-4H-1,2,4-triazol-3-yl}methyl)amino]methyl}pyridine-4-carboxylic acid]
> 10 | > 10 | 0.375 | 3.52 | > 10 | > 10 | – | – | – | CC#CCc1cnc(CNCc2cc(C(=O)O)cc(C)n2)n1Cc1ccc(F)cc1 [Compound 112, 2-[({[5-(but-2-yn-1-yl)-1-[(4-fluorophenyl)methyl]-1H-imidazol-2-yl]methyl}amino)methyl]-6-methylpyridine-4-carboxylic acid]
> 10 | > 10 | 5.77 | > 10 | – | 0.943 | – | – | > 10 | O=C(O)c1cc(CO)nc(CNCCc2nncn2Cc2ccc(C(F)(F)F)cc2)c1 [Compound 66, 2-(hydroxymethyl)-6-({[2-(4-{[4-(trifluoromethyl)phenyl]methyl}-4H-1,2,4-triazol-3-yl)ethyl]amino}methyl)pyridine-4-carboxylic acid]
> 10 | > 10 | 0.501 | 0.491 | > 10 | > 10 | – | – | – | Cc1cc(C(=O)O)cc(CNCc2nnc(C3CCC3)n2Cc2ccc(F)cc2)n1 [Compound 45, 2-{[({5-cyclobutyl-4-[(4-fluorophenyl)methyl]-4H-1,2,4-triazol-3-yl}methyl)amino]methyl}-6-methylpyridine-4-carboxylic acid]
> 10 | > 10 | 0.034 | 1.01 | – | – | 0.151 | – | – | Cc1nnc(CNCc2cc(C(=O)O)cc(CO)n2)n1CCCc1ccccc1 [Compound 65, 2-(hydroxymethyl)-6-[({[5-methyl-4-(3-phenylpropyl)-4H-1,2,4-triazol-3-yl]methyl}amino)methyl]pyridine-4-carboxylic acid]
